From patent US8455435B2, “Remedies for ischemia” (Ludwig-Maximilians-Universitat Munchen, priority 2006, dated 2013)
Several values for one entry are separate records, joined by “and”; a condition that tells them apart may be missing. Equal entries are not always repeated.

Tests used:
VEGF-A and VEGF-R1 = assay: VEGF-A/VEGF-R1 expression in infarct and borderzone after MI, PTH treatment; type: in vivo, mice
Text: FIGS. 18A-18B: Immunohistochemical staining of VEGF-A protein in the granulation tissue at the infarct borderzone and RT-PCR analysis of VEGF-A/VEGF-R1 expression • A) Representative staining of VEGF-A protein (brown) in the granulation tissue of sham operated (left), saline (middle) and PTH treated hearts (right). VEGF-A protein is mainly localized on infiltrated cells in the granulation tissue at the borderzone. • B) Bar graphs representing the relative fold increase of VEGF-A (left) and VEGF-1 receptor (right) mRNA expression of saline treated (n=3, striped bars) and of PTH treated myocardial tissue (n=3-5, black bars) normalized to non infarcted control mice (n=3) 48 hours after myocardial infarction. *p<0.05.

CD31 positive vessels = assay: Neovascularization (CD31 positive vessels) in granulation tissue after MI, PTH treatment; type: in vivo, mice; settings: infarct and borderzone after PTH treatment
Text: C) Representative staining of CD31 positive vessels (left: 100×, right: 400×) in the granulation tissue harboring the borderzone of PTH treated (upper row) and saline treated animals (lower row). […] All sections nuclei (blue) were counterstained with hematoxyline. *p<0.05 saline vs. PTH.

SCF = SCF serum level by ELISA after PTH; type: in vivo, C57BL/6 mice; settings: day 6 of PTH stimulation
Procedure: Mice were divided into the following groups: 1) administration of saline daily for 6 days, sacrificed at day 7 (n=6). 2) administration of PTH (Bachem) daily for 6 consecutive days (80 μg per kg body weight per day, intraperitoneally), sacrificed at day 7 (n=6). 3) administration of PTH daily for 14 consecutive days, sacrificed at day 15 (n=6). 4) administration of G-CSF (Amgen Biologicals) daily for 5 consecutive days (200 μg per kg body weight per day, intraperitoneally), sacrificed at day 6 (n=6).
G-CSF and SCF serum levels were determined by ELISA (Mouse G-CSF and Mouse SCF, RayBiotech).

myocardial function = assay: Pressure volume relations in vivo (conductance catheter) after MI, PTH treatment; set-up: species or system C57BL/6 mice
Procedure: (§1) Myocardial infarction was induced in male C57BL/6 mice 8-12 weeks of age by surgical occlusion of the left anterior descending artery (LAD) through a left anterolateral approach. Mice were anesthetized by intraperitoneal injection of a mixture of 100 mg/kg ketamine (Sigma Chemical Co., St. Louis, Mo.) and 5 mg/kg Xylazine (Sigma), intubated and artificially ventilated by a mouse ventilator (HUGO SACHS, March, Germany) with 200 strokes/min and 200 μl/stroke. Animal care and all experimental procedures were performed in strict accordance to the German and National Institutes of Health animal legislation guidelines and were approved by the local animal care and use committees.
(§2) After occlusion of the LAD, mice were divided into the following groups 1) subcutaneous administration of saline daily for 5 days, sacrificed at day 6 (n=10) and day 30 (n=15); 2) administration of rat PTH (1-34) daily for 5 and 14 consecutive days (80 μg/kg/d s.c., Bachem), sacrificed at day 6 (n=9) and day 30 (n=15); 3) sham operated animals sacrificed at day 30 (n=5), and not operated control animals receiving saline (n=6) sacrificed at day 6 and at day 30. All animals received BrdU ([…]) for 5 consecutive days. BrdU and cytokine treatment were started 12-24 hours after LAD occlusion.
For evaluation of pressure-volume relationships in vivo, surviving mice of the group 1) MI day 6 (n=6) and day 30 (n=6), 2) MI+PTH day 6 (n=6) and day 30 (n=6), and 3) sham (n=5) and control (n=6) animals were anesthetized with thiopental (100 mg/kg, i.p.), intubated and ventilated (MiniVent, HUGO SACHS, Freiburg, Germany). After catheterization via the right carotid artery an impedance-micromanometer catheter (Millar Instruments, Houston, Tex.) was introduced into the left ventricle. Raw conductance volumes were corrected for parallel conductance by the hypertonic saline dilution method. For absolute volume measurements, the catheter was calibrated with known volumes of heparin treated mouse blood. Pressure-volume signals were recorded at steady state and during transient preload reduction achieved by vena cava occlusion to obtain values independent of cardiac afterload^45. Data analyses were performed as previously described^44 using PVAN analysis software (HUGO SACHS, March, Germany).

infarcted left ventricle = assay: Histology: infarct size, wall thickness, infarct composition after MI, PTH treatment; type: in vivo, C57BL/6 mice; settings: for LV-infarct size (area of necrosis and granulation tissue): day 6, % of total LV area
Procedure: as §1, §2
At day 6 (n=10) and day 30 (n=10), hearts were excised. After fixation in 4% phosphate buffered formalin the hearts were cut transversally into 2 mm thick slices and embedded in paraffin. 4 μm thick sections were cut and mounted on positively charged glass slides. Standard histological procedures (hematoxilin/eosin and Masson trichrome) and immunostaining (see below) were performed.
Infarct size was determined as area of infarction (Al) correlated to the area of the left ventricle (including LV-septum) in four different slices from the base to the apex of a heart. Total infarct size was calculated by multiplication of the mean percentage value of the circular infarct area with the quotient: vertical extension of the infarct area/total ventricular extension. Wall thickness was measured by taking the average length of five segments along radii from the centre of the left ventricle through the thinnest points of the free LV wall and the septal wall. All studies were performed by a blinded pathologist.

Substance: rat PTH (1-34)
- expression of VEGF-A and VEGF-R1 (VEGF-A and VEGF-R1): pronounced expression
- angiogenesis (CD31 positive vessels): significantly increased
- serum level of SCF (SCF): 594.6 ± 26.8 pg/mL
- maximum LV pressure (myocardial function; PTH treatment of sham operated animals): 80.3±2.1 mmHg
- arterial elastance (Ea) (myocardial function; day 6 after MI): 6.1±0.5 mmHg/μl and 6.0 mmHg/μl
- cardiac output (myocardial function; day 6 after MI): 5537 µL/min
- contractility (myocardial function; day 6 after MI): 4742±394 mmHg/sec
- ejection fraction (EF) (myocardial function; day 6 after MI): 30%
- stroke work (myocardial function; day 6 after MI): increased
- diastolic function (Tau glantz) (myocardial function; day 6 after MI, vs saline): without significant changes
- arterial elastance (Ea) (myocardial function; day 30 after MI): 7.2±0.5 mmHg/μl and 7.1 mmHg/μl
- cardiac output (myocardial function; day 30 after MI): 3810±205
- diastolic relaxation (Tau Glantz) (myocardial function; day 30 after MI): 12.0 ± 0.8 ms
- ejection fraction (EF) (myocardial function; day 30 after MI): 29.0±7.1% and 29%
- enddiastolic volume (EDV) (myocardial function; day 30 after MI): 34.4±6.1
- stroke work (myocardial function; day 30 after MI): 382±59 mmHg×μl
- anterior (free LV) wall thickness (infarcted left ventricle; day 6): 0.58 mm
- cellular density in the granulation tissue (infarcted left ventricle; day 6): 3317±171 /mm^2
- LV-infarct size (area of necrosis and granulation tissue) (infarcted left ventricle): 37%
- LV-infarct size (area of necrosis and granulation tissue) (infarcted left ventricle; listed as rPTH(1-34)): 37.3±4.9%
- anterior (free LV) wall thickness (infarcted left ventricle; day 30): 0.22 mm
- frequency of large LV-aneurysms (infarcted left ventricle; day 30, vs saline): lower frequency
- infarct size (area of fibrosis) (infarcted left ventricle; day 30 after LAD occlusion): 23.3±4.6% and 23%
